Experimental data taken from US6821743B2, “Human endothelin receptor” (Shionogi Sieyaku Kabushiki Kaisha, priority 1991, dated 2004).
“Also recorded” adds a separate entry of the source. Bridge positions count the residues as written; N and C are the ends. Peptide text beside a SMILES is read from it.

Key:
ETB-receptor = molecular target: T1, ETB-receptor (Homo sapiens, UniProt P24530); assay: Competitive 125I-ET-1 binding assay on COS-7 cells transfected with CDM8-pHETBR
T1 construct: expressed in transfected cells; host or cells: COS-7 cells
T1 sequence (P24530 27-442): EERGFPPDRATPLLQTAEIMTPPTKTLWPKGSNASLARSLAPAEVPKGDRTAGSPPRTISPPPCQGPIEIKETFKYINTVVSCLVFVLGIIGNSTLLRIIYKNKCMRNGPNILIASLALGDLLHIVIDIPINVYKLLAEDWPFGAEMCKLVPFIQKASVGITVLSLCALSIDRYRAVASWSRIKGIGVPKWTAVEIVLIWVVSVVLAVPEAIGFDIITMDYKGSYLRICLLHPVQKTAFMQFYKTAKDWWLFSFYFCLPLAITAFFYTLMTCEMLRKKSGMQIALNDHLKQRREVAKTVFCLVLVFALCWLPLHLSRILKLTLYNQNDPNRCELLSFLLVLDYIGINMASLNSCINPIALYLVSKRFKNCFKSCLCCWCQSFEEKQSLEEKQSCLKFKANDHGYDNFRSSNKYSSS

ETA-receptor [1] = molecular target: T2, ETA-receptor (Homo sapiens, UniProt P25101); assay: Inward current in Xenopus laevis oocytes injected with ETA-receptor mRNA; assay type: cell-based; conditions: 1×10^−7 M peptide, holding potential −60 mV, 20° C.
T2 sequence (P25101 21-427): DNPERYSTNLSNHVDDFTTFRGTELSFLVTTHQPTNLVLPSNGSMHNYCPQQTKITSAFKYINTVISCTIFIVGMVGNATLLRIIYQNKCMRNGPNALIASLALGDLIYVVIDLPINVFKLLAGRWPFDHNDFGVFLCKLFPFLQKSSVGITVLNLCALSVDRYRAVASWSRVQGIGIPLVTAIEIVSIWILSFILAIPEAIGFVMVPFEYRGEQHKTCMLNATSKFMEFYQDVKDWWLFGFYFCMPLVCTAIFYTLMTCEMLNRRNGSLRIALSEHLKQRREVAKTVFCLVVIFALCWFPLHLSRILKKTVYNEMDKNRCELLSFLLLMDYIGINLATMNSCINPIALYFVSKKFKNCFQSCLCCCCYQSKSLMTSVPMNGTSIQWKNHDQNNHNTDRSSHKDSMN

[2] = tested on: rat A-10 vascular smooth muscle cell; conditions: J. Biol. Chem. 265, 14044-14049 (1990); cited from earlier work
[3] = in vivo, previously shown; cited from earlier work
ETA-receptor [4] = molecular target: T2, ETA-receptor; assay: Competitive 125I-ET-1 binding assay on COS-7 cells transfected with CDM8-phETIR; set-up: expressed in transfected cells; host or cells: COS-7 cells; conditions: displacement of 50 pM 125I-ET-1, transfected COS-7 cells, 37° C. for 60 min

SMILES | affinity of the receptor (FIG. 4) (ETB-receptor; transformant containing CDM8-pHETBR) | inward current recorded from the oocyte (ETA-receptor [1]) | inhibition of binding of 125I-ET-1 [2] | vasoconstrictor strength [3] | IC50 (ETA-receptor [4]) [nM] | IC50 (ETB-receptor; displacement of 125I-ET-1, COS cell transformed with CDM8-pHETBR) [nM]
CC[C@H](C)[C@H](NC(=O)[C@H](CC(=O)O)NC(=O)[C@H](CC(C)C)NC(=O)[C@H](Cc1c[nH]cn1)NC(=O)[C@@H]1CSSC[C@H](N)C(=O)N[C@@H](CO)C(=O)N[C@H]2CSSC[C@H](NC(=O)[C@H](CCC(=O)O)NC(=O)[C@H](CCCCN)NC(=O)[C@H](CC(=O)O)NC(=O)[C@H](CC(C)C)NC(=O)[C@H](Cc3c[nH]c4ccccc34)NC(=O)[C@H](CO)NC(=O)[C@H](CO)NC2=O)C(=O)N[C@@H](C(C)C)C(=O)N[C@@H](Cc2ccc(O)cc2)C(=O)N[C@@H](Cc2ccccc2)C(=O)N1)C(=O)N[C@H](C(=O)N[C@@H](Cc1c[nH]c2ccccc12)C(=O)O)[C@@H](C)CC [ET-2, Endothelin 2] (H-CSCSSWLDKECVYFCHLDIIW-OH; disulfide 1-15, 3-11; N-terminus and C-terminus assumed) | almost the same affinity | the same value of current; also recorded: A similar inward current | inhibit the binding of ^125I-ET-1 | much more strong vasoconstrictors than ET-3 | – | –
CC[C@H](C)[C@H](NC(=O)[C@H](CC(=O)O)NC(=O)[C@H](CC(C)C)NC(=O)[C@H](Cc1c[nH]cn1)NC(=O)[C@@H]1CSSC[C@H](N)C(=O)N[C@@H](CO)C(=O)N[C@H]2CSSC[C@H](NC(=O)[C@H](CCC(=O)O)NC(=O)[C@H](CCCCN)NC(=O)[C@H](CC(=O)O)NC(=O)[C@H](CCSC)NC(=O)[C@H](CC(C)C)NC(=O)[C@H](CO)NC(=O)[C@H](CO)NC2=O)C(=O)N[C@@H](C(C)C)C(=O)N[C@@H](Cc2ccc(O)cc2)C(=O)N[C@@H](Cc2ccccc2)C(=O)N1)C(=O)N[C@H](C(=O)N[C@@H](Cc1c[nH]c2ccccc12)C(=O)O)[C@@H](C)CC [ET-1, Endothelin 1] | – | – | inhibit the binding of ^125I-ET-1 | much more strong vasoconstrictors than ET-3 | – | –
CC[C@H](C)[C@H](NC(=O)[C@H](CC(=O)O)NC(=O)[C@H](CC(C)C)NC(=O)[C@H](Cc1cnc[nH]1)NC(=O)[C@@H]1CSSC[C@H](N)C(=O)N[C@@H](CO)C(=O)N[C@H]2CSSC[C@H](NC(=O)[C@H](CCC(=O)O)NC(=O)[C@H](CCCCN)NC(=O)[C@H](CC(=O)O)NC(=O)[C@H](CC(C)C)NC(=O)[C@H](Cc3c[nH]c4ccccc34)NC(=O)[C@H](CO)NC(=O)[C@H](CO)NC2=O)C(=O)N[C@@H](C(C)C)C(=O)N[C@@H](Cc2ccc(O)cc2)C(=O)N[C@@H](Cc2ccccc2)C(=O)N1)C(=O)N[C@H](C(=O)N[C@@H](Cc1c[nH]c2ccccc12)C(=O)O)[C@@H](C)CC [ET-2, Endothelin 2] (H-CSCSSWLDKECVYFCHLDIIW-OH; disulfide 1-15, 3-11) | – | – | – | – | 6.1 | ~1
